Target: ATP-dependent translocase ABCB1 (Mus musculus, UniProt P21447)
Assay: TP_TRANSPORTER: increase in plasma concentration in mdr1a(-/-) mouse
Type: functional, organism-based
Settings: in vivo

Chain of ATP-dependent translocase ABCB1 (P21447 whole entry): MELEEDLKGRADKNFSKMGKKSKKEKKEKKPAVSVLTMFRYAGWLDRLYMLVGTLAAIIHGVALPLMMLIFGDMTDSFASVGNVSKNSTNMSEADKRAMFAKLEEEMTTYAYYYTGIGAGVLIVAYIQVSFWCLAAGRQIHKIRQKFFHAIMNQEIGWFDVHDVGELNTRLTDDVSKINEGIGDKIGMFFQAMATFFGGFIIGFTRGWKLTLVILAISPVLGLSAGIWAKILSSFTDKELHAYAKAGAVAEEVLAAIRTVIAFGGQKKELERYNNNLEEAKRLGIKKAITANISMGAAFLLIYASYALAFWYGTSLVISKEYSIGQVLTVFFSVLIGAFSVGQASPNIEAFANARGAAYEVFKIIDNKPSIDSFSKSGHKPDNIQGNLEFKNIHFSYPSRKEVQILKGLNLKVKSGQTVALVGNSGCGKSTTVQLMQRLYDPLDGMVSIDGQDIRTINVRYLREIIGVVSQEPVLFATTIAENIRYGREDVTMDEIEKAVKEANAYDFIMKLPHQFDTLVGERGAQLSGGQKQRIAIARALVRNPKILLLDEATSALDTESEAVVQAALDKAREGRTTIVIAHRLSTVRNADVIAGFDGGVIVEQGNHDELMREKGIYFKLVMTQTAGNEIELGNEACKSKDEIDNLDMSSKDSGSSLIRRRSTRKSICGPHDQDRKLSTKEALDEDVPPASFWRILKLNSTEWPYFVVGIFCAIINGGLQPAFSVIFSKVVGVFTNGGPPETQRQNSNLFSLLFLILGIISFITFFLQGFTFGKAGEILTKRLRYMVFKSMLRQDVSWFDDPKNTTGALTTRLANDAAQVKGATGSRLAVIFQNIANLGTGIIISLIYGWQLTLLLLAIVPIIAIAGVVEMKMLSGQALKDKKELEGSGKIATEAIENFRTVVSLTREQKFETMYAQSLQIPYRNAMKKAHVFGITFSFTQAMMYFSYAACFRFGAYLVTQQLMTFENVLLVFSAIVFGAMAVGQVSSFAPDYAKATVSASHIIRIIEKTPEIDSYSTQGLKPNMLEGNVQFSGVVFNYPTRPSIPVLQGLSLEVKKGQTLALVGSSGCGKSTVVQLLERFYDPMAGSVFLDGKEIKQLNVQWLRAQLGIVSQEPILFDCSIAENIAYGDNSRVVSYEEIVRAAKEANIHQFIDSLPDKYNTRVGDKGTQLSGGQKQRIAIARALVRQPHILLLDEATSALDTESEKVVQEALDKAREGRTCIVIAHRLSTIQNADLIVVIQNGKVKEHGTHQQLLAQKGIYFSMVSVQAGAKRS

Activity: substrate [+]
Sequence: IVERMECTIN
